Read-outs that look alike come from different tables or passages of the source. Numbered stars: 1 amine (or outer) side, 2 acyl side, 3 side chain; on linkers, the order of the positions; unused ones are H or OH. Bridge positions count the residues as written; N and C are the ends. Square brackets hold non-standard residues; d marks the D form. Peptide text beside a SMILES is read from it. * marks the point of attachment. Orn(4R-OH,5R-OCH2CH2NMe3+) = C[N+](C)(C)CCO[C@@H](N[*:3])[C@H](O)C[C@H](N[*:1])C(=O)[*:2]; pTerphenylCO(4''-OnC5H11) = CCCCCOc1ccc(-c2ccc(-c3ccc(C(=O)*)cc3)cc2)cc1; hTyr(3S-OH,4S-OH) = N[C@H](C(=O)O)[C@H](O)[C@@H](O)c1ccc(O)cc1; Pro(3S-OH,4S-Me) = C[C@H]1CN[C@H](C(=O)O)[C@H]1O; Hyp = O=C(O)[C@@H]1C[C@@H](O)CN1
Columns and labels:
Assay type in all cases: in vivo, humans
[1] = test system: healthy adults; assay: Multiple-ascending-dose phase 1 study: safety and tolerability
Experimental: (§1) The single-ascending-dose and multiple-ascending-dose studies were phase 1, randomized, double-blind, dose-escalation, placebo-controlled, single-center safety trials of CD101 IV in healthy adults (ClinicalTrials.gov identifiers: NCT02516904 for the single-ascending-dose study; NCT02551549 for the multiple-ascending-dose study). In the single-ascending-dose study, 4 cohorts (corresponding to doses of 50, 100, 200, and 400 mg) of 8 subjects (6 active and 2 placebo) received CD101 IV or placebo infused over 60 (±5) min. In the multiple-ascending-dose study, 3 cohorts (cohort 1, 100 mg ×2 doses; cohort 2, 200 mg ×2 doses; cohort 3, 400 mg ×3 doses) of 8 subjects (6 active and 2 placebo) received CD101 IV or placebo (normal saline solution) infused over 60 (±5) min, with doses separated by 7 days.
(§2) All subjects were monitored for AEs throughout the study until 21 days after the last dose of study drug. Electrocardiograms, hematology and serum chemistry evaluations, and UA were performed at screening, on day −1, and at various time points during and for 14 days after the dosing period. Subjects remained in the clinical research unit for observation and safety assessments from day −1 until 7 days after the last dose of study drug. Three additional safety assessments were performed at weekly follow-up visits following the last dose of study drug. The long follow-up period ensured that any delayed safety events were captured, since CD101 has a very long t1/2 and plasma levels are expected to persist for several weeks. Safety was assessed ≥5 days after dosing by study physicians to determine whether it was safe to proceed to the next dose.
(§3) Safety was assessed in the safety analysis population. Safety was evaluated by presenting summaries of AEs, ECGs, clinical laboratory evaluations (hematology evaluation, chemistry panel, and UA), and vital signs. Adverse events were coded using the Medical Dictionary for Regulatory Activities Version 18.0. A TEAE was an AE that occurred during or after study drug administration and up through 21 (±1) days after study drug administration. The incidence of TEAEs was summarized by system organ class and preferred term, by relationship to study drug, and by severity. In addition, the incidence of serious TEAEs and the incidence of TEAEs leading to discontinuation of study drug were summarized by system organ class and preferred term. Descriptive statistics for clinical laboratory test results and vital signs, and for changes from baseline, were summarized by time point. Incidences of potentially clinically significant clinical laboratory results and vital signs were also summarized by time point. The numbers and percentages of abnormal ECGs were summarized by time point.

[2] = Multiple-ascending-dose phase 1 study: plasma and urine pharmacokinetics; conditions: for Vd / clearance / half-life / level at 144 h: plasma; for Vd / clearance / half-life / level at 144 h / dose excreted: iv; for level at 144 h: read-out: trough concentration on day 7 (144 h postdose); for dose excreted: urine
Experimental: as §1
(§4) Extensive PK sampling from plasma and urine was performed for all subjects following study drug administration and over the 3 weeks after the last dose of study drug. Plasma and urine samples from subjects who received CD101 IV were analyzed by a bioanalytical laboratory for CD101 concentration using a validated liquid chromatography-tandem mass spectrometry method with a lower limit of quantitation of 10 ng/ml.
(§5) Pharmacokinetics were assessed in the PK analysis population and included Cmax, AUC, Cl, elimination rate constant (λz), and terminal t1/2. Plasma concentration-time profiles were constructed for each subject and dosing cohort. For each plasma concentration-time curve, PK parameters were determined directly from inspection of the data or calculated using noncompartmental methods with validated PK software (Phoenix WinNonlin, Version 6.3). Urine concentration data were used to determine renal excretion and drug recovery rates. The number of subjects was selected to allow sufficient evaluation of safety, tolerability, and PK and was consistent with phase 1 standards of practice ([44]).

[3] = test system: healthy adults; assay: Single-ascending-dose phase 1 study: safety and tolerability
Experimental: as §1, §2, §3

[4] = Single-ascending-dose phase 1 study: plasma and urine pharmacokinetics; conditions: for Vd / clearance / half-life / Cmax: plasma, arithmetic mean; for Vd: iv; for Cmax: LC-MS/MS
Experimental: as §1, §4, §5

[5] = human, 100 mg, 100 mg IV once weekly x2, day 1, sampling interval 144 h, arithmetic mean
[6] = human, 100 mg, 100 mg IV once weekly x2, day 8, sampling interval 480 h, arithmetic mean
[7] = human, 200 mg, 200 mg IV once weekly x2, day 1, sampling interval 144 h, arithmetic mean
[8] = human, 200 mg, 200 mg IV once weekly x2, day 8, sampling interval 480 h, arithmetic mean
[9] = human, 400 mg, 400 mg IV once weekly x3, day 1, sampling interval 144 h, arithmetic mean
[10] = human, 400 mg, 400 mg IV once weekly x3, day 15, sampling interval 480 h, arithmetic mean
[11] = single and multiple doses, all dose levels
[12] = human, single 50 mg IV infusion over 1 h
[13] = human, single 100 mg IV infusion over 1 h
[14] = human, single 200 mg IV infusion over 1 h
[15] = human, single 400 mg IV infusion over 1 h

Structure (SMILES): CCCCCOc1ccc(-c2ccc(-c3ccc(C(=O)N[C@H]4C[C@@H](O)[C@@H](OCC[N+](C)(C)C)NC(=O)[C@@H]5[C@@H](O)[C@@H](C)CN5C(=O)[C@H]([C@@H](C)O)NC(=O)[C@H]([C@H](O)[C@@H](O)c5ccc(O)cc5)NC(=O)[C@@H]5C[C@@H](O)CN5C(=O)[C@H]([C@@H](C)O)NC4=O)cc3)cc2)cc1 [CD101] ({pTerphenylCO(4''-OnC5H11)}-[Orn(4R-OH,5R-OCH2CH2NMe3+)]T[Hyp][hTyr(3S-OH,4S-OH)]T[Pro(3S-OH,4S-Me)]; lactam 1-C)
- subjects with mild, transient infusion reactions (flushing, feeling hot, nausea, chest tightness) ([1]; all CD101 cohorts, primarily cohort 3, most common with third dose): Four
- subjects with TEAEs related to study drug ([1]; cohort 1 (100 mg x2 weeks)): 1 subject
- subjects with TEAEs related to study drug ([1]; cohort 2 (200 mg x2 weeks)): 1 subject
- subjects with moderate TEAEs ([1]; cohort 2 (200 mg x2 weeks), arthropod bite and pruritus): 1 subject
- subjects with TEAEs related to study drug ([1]; cohort 3 (400 mg x3 weeks)): 4 subjects
- subjects with gastrointestinal disorders (system organ class) ([1]; cohort 3 (400 mg x3 weeks)): 4 [67%] subjects [%]
- subjects with vascular disorders (system organ class) ([1]; cohort 3 (400 mg x3 weeks)): 3 [50%] subjects [%]
- subjects with moderate TEAEs ([1]; cohort 3 (400 mg x3 weeks), constipation and myalgia): 2 subjects
- Vss ([2]; 100 mg IV once weekly x2, day 8, arithmetic mean): 29.3 L
- cumulative amount excreted in urine ([2]; cohort 1 (100 mg x2), day 1): 52.0 µg
- mean renal clearance ([2]; cohort 1 (100 mg x2), day 1): 0.1877 mL/h
- cumulative amount excreted in urine ([2]; cohort 1 (100 mg x2), day 8): 151.4 µg
- cumulative amount excreted in urine ([2]; cohort 2 (200 mg x2), day 1): 145.0 µg
- cumulative amount excreted in urine ([2]; cohort 2 (200 mg x2), day 8): 400.7 µg
- cumulative amount excreted in urine ([2]; cohort 3 (400 mg x3), day 1): 330.6 µg
- cumulative amount excreted in urine ([2]; cohort 3 (400 mg x3), day 15): 987.5 µg
- mean renal clearance ([2]; cohort 3 (400 mg x3), day 15): 0.5965 mL/h
- cumulative amount excreted in urine, times higher than on day 1 ([2]; days 8 and 15 vs day 1): approximately 3 times
- t1/2 ([2]; following the first dose): approximately 80 h
- Vd ([2]; human, 100 mg, 100 mg IV once weekly x2, day 1, arithmetic mean, read-out: Vss): 28.8 L
- Vd ([2]; human, 100 mg, 100 mg IV once weekly x2, day 1, arithmetic mean, read-out: Vz): 29.5 L
- clearance [2, 5]: 4.3 mL/min
- half-life [2, 5]: 79.1 h
- Vd ([2]; human, 100 mg, 100 mg IV once weekly x2, day 8, arithmetic mean, read-out: Vz): 33.8 L
- clearance [2, 6]: 2.48 mL/min
- half-life [2, 6]: 158 h
- Vd ([2]; human, 200 mg, 200 mg IV once weekly x2, day 1, arithmetic mean, read-out: Vss): 31.7 L
- Vd ([2]; human, 200 mg, 200 mg IV once weekly x2, day 1, arithmetic mean, read-out: Vz): 32.8 L
- clearance [2, 7]: 4.65 mL/min
- half-life [2, 7]: 81.3 h
- Vd ([2]; human, 200 mg, 200 mg IV once weekly x2, day 8, arithmetic mean, read-out: Vss): 28.5 L
- Vd ([2]; human, 200 mg, 200 mg IV once weekly x2, day 8, arithmetic mean, read-out: Vz): 30.9 L
- clearance [2, 8]: 2.58 mL/min
- half-life [2, 8]: 140 h
- Vd ([2]; human, 400 mg, 400 mg IV once weekly x3, day 1, arithmetic mean, read-out: Vss): 29.6 L
- Vd ([2]; human, 400 mg, 400 mg IV once weekly x3, day 1, arithmetic mean, read-out: Vz): 31.2 L
- clearance [2, 9]: 4.47 mL/min
- half-life [2, 9]: 81 h
- Vd ([2]; human, 400 mg, 400 mg IV once weekly x3, day 15, arithmetic mean, read-out: Vss): 25.4 L
- Vd ([2]; human, 400 mg, 400 mg IV once weekly x3, day 15, arithmetic mean, read-out: Vz): 27.9 L
- clearance [2, 10]: 2.1 mL/min
- half-life [2, 10]: 152 h
- level at 144 h ([2]; human, 400 mg, following the first dose): ~4000 ng/mL
- level at 144 h ([2]; human, 400 mg, following the third (last) dose): ~7000 ng/mL
- half-life ([2]; human, following the second or third dose): ~150 h
- dose excreted ([2]; human, all dose levels, both studies, read-out: fraction of dose excreted): < 1%
- dose excreted ([2]; human, LC-MS/MS, read-out: amount of CD101 excreted in urine): ≤ 0.26%
- AUC(0-t) ([2]; human, 200 mg IV once weekly x2, day 1, plasma, arithmetic mean, read-out: AUC0–168): 570 µg·h/mL
- Cmax ([2]; human, 400 mg IV once weekly x3, day 1, plasma, arithmetic mean): 22700 ng/mL
- apparent clearance [2, 11]: < 0.28 L/h
- half-life (t1/2) [2, 11]: > 80 h
- SAEs, severe AEs, withdrawals due to an AE, deaths ([3]; both studies, all dose levels): no serious adverse events (SAEs), severe adverse events (AEs), withdrawals due to an AE, or deaths
- laboratory abnormalities, vital signs, ECG ([3]; both studies, all dose levels): no clinically meaningful trends in postbaseline laboratory abnormalities
- overall safety and tolerability ([3]; both studies, single dose up to 400 mg, multiple doses up to 400 mg once weekly for 3 weeks): safe and well tolerated at all dose levels tested
- subjects with gastrointestinal disorders (system organ class) ([3]; cohort 1 (single 50 mg)): 2 [33%] subjects [%]
- subjects with musculoskeletal and connective tissue disorders ([3]; cohort 1 (single 50 mg)): 2 [33%] subjects [%]
- subjects with gastrointestinal disorders (system organ class) ([3]; cohort 3 (single 200 mg)): 2 [33%] subjects [%]
- subjects with general disorders and administration site conditions ([3]; cohort 3 (single 200 mg)): 2 [33%] subjects [%]
- subjects with musculoskeletal and connective tissue disorders ([3]; cohort 3 (single 200 mg)): 2 subjects
- subjects with moderate TEAEs ([3]; cohort 3 (single 200 mg), ear pain): 1 subject
- subjects with musculoskeletal and connective tissue disorders ([3]; cohort 4 (single 400 mg)): 1 subject
- subjects with moderate TEAEs ([3]; cohort 4 (single 400 mg), headache): 1 subject
- Vd ([4]; human, 50 mg, single 50 mg IV infusion over 1 h, read-out: Vss (volume of distribution at steady state)): 36 L
- Vd ([4]; human, 50 mg, single 50 mg IV infusion over 1 h, read-out: Vz (apparent volume of distribution during terminal phase)): 43.2 L
- Vd ([4]; human, 100 mg, single 100 mg IV infusion over 1 h, read-out: Vss (volume of distribution at steady state)): 42.9 L
- Vd ([4]; human, 100 mg, single 100 mg IV infusion over 1 h, read-out: Vz (apparent volume of distribution during terminal phase)): 50.6 L
- Vd ([4]; human, 200 mg, single 200 mg IV infusion over 1 h, read-out: Vss (volume of distribution at steady state)): 34.4 L
- Vd ([4]; human, 200 mg, single 200 mg IV infusion over 1 h, read-out: Vz (apparent volume of distribution during terminal phase)): 39.7 L
- Vd ([4]; human, 400 mg, single 400 mg IV infusion over 1 h, read-out: Vss (volume of distribution at steady state)): 35.9 L
- Vd ([4]; human, 400 mg, single 400 mg IV infusion over 1 h, read-out: Vz (apparent volume of distribution during terminal phase)): 41.6 L
- clearance [4, 12]: 3.75 mL/min
- half-life [4, 12]: 133 h
- Cmax ([4]; human, single 100 mg IV infusion over 1 h, read-out: Cmax): 4860 ng/mL
- clearance [4, 13]: 4 mL/min
- half-life [4, 13]: 146 h
- clearance [4, 14]: 3.65 mL/min
- half-life [4, 14]: 125 h
- clearance [4, 15]: 3.77 mL/min
- half-life [4, 15]: 129 h
- Cmax ([4]; single 400 mg IV infusion over 1 h): 22700 ng/mL
- mean half-life (t1/2) through the first week (up to day 7) of plasma sampling ([4]; single 50 to 400 mg IV doses): > 80 h

Reference: publication PMC5278714, “Safety and Pharmacokinetics of CD101 IV, a Novel Echinocandin, in Healthy Adults” (Antimicrobial Agents and Chemotherapy, 2017)
